Assay results taken from patent US7910622B2, “Modulation of bacterial quorum sensing with synthetic ligands” (Wisconsin Alumni Research Foundation, priority 2007, dated 2011).

What was measured:
Assay in all cases: cell-based
[1] = biological target: T1, LasR (Pseudomonas aeruginosa, UniProt P25084); conditions: for E. coli-LasR Activation [%]: 5 μM ligand; for E. coli-LasR Activation [%] / activation at 5 µM: E. coli DH5α (pJN105L pSC11), normalized to OdDHL; for EC50: read-out: LasR EC50; for activation at 5 µM: read-out: E. coli-LasR Activation [%], 5 μM ligand
T1 construct: expressed in transfected cells; host or cells: E. coli DH5α (pJN105L pSC11), arabinose-induced
T1 sequence (P25084 whole entry): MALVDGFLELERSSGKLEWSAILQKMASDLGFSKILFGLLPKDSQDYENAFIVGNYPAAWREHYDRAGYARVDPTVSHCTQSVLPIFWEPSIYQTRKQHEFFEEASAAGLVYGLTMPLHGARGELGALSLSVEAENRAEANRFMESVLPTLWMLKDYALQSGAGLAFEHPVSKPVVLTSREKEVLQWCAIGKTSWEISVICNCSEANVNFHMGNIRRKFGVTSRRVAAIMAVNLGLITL
Method: (§1) E. coli LasR reporter gene assay protocols. […] An overnight culture of E. coli DH5a (pJN105L pSC11) grown at 37° C. was subculture by diluting 1/10 in fresh LB medium containing 100 μg/mL ampicillin and 15 μg/mL gentamicin and shaking at 37° C. until OD600=0.3. Arabinose (4 mg/mL) was then added to induce the LasR promoter and a 200 μL-portion of this culture was added to each well of the multititer plate containing AHLs. Plates were grown at 37° C. for 2 hours in a rotary shaking incubator (200 rpm; OD600=0.45). The cultures were then assayed for activity following the identical β-galactosidase assay protocols used in the A. tumefaciens reporter gene assays.
(§2) Dose response reporter gene assays. […] IC50 and EC50 values were calculated using GraphPad Prism software (v. 4.0) using a sigmoidal curve fit.
(§3) E. coli LasR reporter gene assay protocols. […] An overnight culture of E. coli DH5α (pJN105L pSC11) was diluted 1:10 with fresh LB medium containing 100 μg/mL ampicillin and 15 μg/mL gentamicin. This sub-culture was incubated at 37° C. until OD600=0.3 (4-6 h). Arabinose (4 mg/mL) was then added to induce the LasR promoter, and a 200 μL portion of this culture was added to each well of the multititer plate containing AHLs. Plates were incubated at 37° C. until OD600=0.45 (4-6 h). The cultures were then assayed for LasR activity following the identical β-galactosidase assay protocols used in the A. tumefaciens reporter gene assays (see above).
as §2

[2] = biological target: T2, LuxR (Aliivibrio fischeri, UniProt P35327); assay type: cell-based, Vibrio fischeri; conditions: for V. fischeri-LuxR Inhibition [%]: 5 μM synthetic ligand against 5 μM OHHL; for V. fischeri-LuxR Inhibition [%] / inhibition at 5 µM: V. fischeri ES114 (Δ-luxI), normalized to OHHL; for inhibition at 5 µM: read-out: V. fischeri-LuxR Inhibition [%], 5 μM synthetic ligand against 5 μM OHHL; for IC50: LuxR IC50, determined against 5 μM OHHL
T2 construct: a Δ-luxI derivative of V. fischeri ES114, in which the native lux operon behaves as the bioluminescent reporter; endogenous in cells; host or cells: V. fischeri ES114 (Δ-luxI)
T2 sequence (P35327 whole entry): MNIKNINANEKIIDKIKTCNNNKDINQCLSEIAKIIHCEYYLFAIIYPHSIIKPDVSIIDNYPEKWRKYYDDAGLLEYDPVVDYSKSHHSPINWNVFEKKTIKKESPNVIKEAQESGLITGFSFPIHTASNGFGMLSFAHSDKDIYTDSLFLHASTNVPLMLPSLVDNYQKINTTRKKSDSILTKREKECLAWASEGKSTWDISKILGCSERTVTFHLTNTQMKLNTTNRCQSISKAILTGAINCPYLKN
Method: (§4) Luminescence assays. For agonism assays, an appropriate amount of AHL stock solution was added into a 96-well plate. An overnight culture of E. coli or V. fischeri was diluted 1:10 with appropriate media (LB plus 10 μg/mL tetracycline for E. coli; LBS for V. fischeri). A 200-μL portion of the diluted culture was added to each well of the plate. Plates were grown for 4-8 h with shaking (200 rpm; 30° C. for E. coli and RT for V. fischeri). Luminescence was measured using a multilabel plate reader and normalized to cell density. […] All assays were performed in triplicate. Graphpad Prism software was used to calculate IC50 and EC50 values.
(§5) Vibrio fischeri assay procedures. […] An overnight culture of V. fischeri ES114 (WT, Δ-luxI or Δ-luxR) was diluted 1:10 with LBS medium. A-200 μL portion of the diluted culture was added to each well of the plate. Plates were grown at RT with shaking (200 rpm) until the OD600=0.35-0.4 (4-6 h). Luminescence then was measured and normalized to cell density per well. […] All assays were performed in triplicate. IC50 and EC50 values were calculated using GraphPad Prism software using a sigmoidal curve fit.
(§6) V. fischeri reporter gene assay protocols. […] An overnight culture of V. fischeri ES114 (D-luxI) was diluted 1:10 with LBS medium. A 200-μL portion of the diluted culture was added to each well of the multititer plate. Plates were grown at RT with shaking (200 rpm) until the OD600=0.35-0.4 (4-6 h). Luminescence then was measured and normalized to cell density per well.
as §2
(§7) V. fischeri reporter gene assay protocols. […] An overnight culture of V. fischeri ES114 (Δ-luxI) was diluted 1:10 with LBS medium. A200 μL portion of the diluted culture was added to each well of the multititer plate. Plates were incubated at RT until the OD600=0.35-0.4 (4-6 h). Luminescence then was measured and normalized to cell density per well.
as §2

[3] = biological target: T3, TraR (Agrobacterium tumefaciens, UniProt P33905); conditions: for A. tumefaciens-TraR Activation [%]: 10 μM ligand; for A. tumefaciens-TraR Activation [%] / A. tumefaciens-TraR Inhibition [%] / inhibition at 10 µM: A. tumefaciens WCF47 (pCF372), normalized to OOHL; for A. tumefaciens-TraR Inhibition [%]: 10 μM synthetic ligand against 100 nM OOHL; for activation at 10 µM: read-out: A. tumefaciens-TraR Activation [%]; for inhibition at 10 µM: read-out: A. tumefaciens-TraR Inhibition [%], 10 μM synthetic ligand against 100 nM OOHL
T3 construct: These strains lack their AHL synthase (I) genes, but retain their native R genes; endogenous in cells; host or cells: A. tumefaciens WCF47 (Δ-traI) with PtraI-lacZ plasmid pCF372
T3 sequence (P33905 whole entry): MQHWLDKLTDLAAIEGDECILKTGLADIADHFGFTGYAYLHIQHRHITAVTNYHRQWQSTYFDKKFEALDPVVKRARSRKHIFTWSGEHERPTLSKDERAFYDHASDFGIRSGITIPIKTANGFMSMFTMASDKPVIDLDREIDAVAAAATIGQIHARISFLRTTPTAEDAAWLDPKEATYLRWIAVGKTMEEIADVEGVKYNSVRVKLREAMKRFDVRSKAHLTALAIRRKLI
Method: A. tumefaciens reporter gene assay protocols. […] An overnight culture of A. tumefaciens WCF47 (pCF372) was diluted to an OD600 of 0.1 in fresh AB minimal medium containing 400 μg/mL octopine and 50 μg/mL streptomycin. A 200 μL-portion of the diluted culture was added to each well of the multititer plate containing AHLs. Plates were grown at 28° C. for 18-20 h in a rotary shaking incubator (200 rpm). The cultures were then assayed for β-galactosidase activity following the Miller assay method. Briefly, 200 μL aliquots of bacteria from each of the wells were added to wells of a polystyrene 96-well plate and the OD600 of each well was recorded. Next, 50 μL aliquots from each well were transferred to a solvent resistant 96-well plate containing 200 μL Z buffer, 8 μL CHCl3 and 4 μL 0.1% aq. sodium dodecylsulfate (SDS). This suspension was mixed via repetitive pipetting, after which the CHCl3 was allowed to settle. A 100-μL aliquot from each well was transferred to a fresh polystyrene 96-well plate, and 20 μL of substrate, o-nitrophenyl-β-D-galactopyranoside (ONPG, 4 μg/mL in phosphate buffer), was added at time zero. After the development of appropriate yellow color (ca. 15-35 min), the reaction was terminated by the addition of 50 μL of 1 M Na2CO3. Absorbance at 420 nm and 550 nm was measured for each well using a plate reader, and Miller units were calculated according to standard methods.
as §2
A. tumefaciens reporter gene assay protocols. […] An overnight culture of A. tumefaciens WCF47 (pCF372) was diluted 1:10 with fresh AB minimal medium containing 400 μg/mL octopine and 50 μg/mL streptomycin. A 200 μL portion of the diluted culture was added to each well of the multititer plate containing AHLs. Plates were incubated at 28° C. for 18-24 h. The cultures were then assayed for β-galactosidase activity following the Miller assay method. Briefly, 200 μL aliquots of bacteria from each of the wells were added to wells of a 96-well multititer plate, and the OD600 of each well was recorded. Next, 50 μL aliquots from each well were transferred to a solvent resistant 96-well multititer plate containing 200 μL Z buffer, 8 μL CHCl3 and 4 μL 0.1% aq. SDS. This suspension was mixed via repetitive pipetting, after which the CHCl3 was allowed to settle. A 100 μL aliquot from each well was transferred to a fresh 96-well multititer plate, and 20 μL of substrate, o-nitrophenyl-β-D-galactopyranoside (ONPG, 4 μg/mL in phosphate buffer), was added at time zero. After the development of appropriate yellow color (ca. 20-30 min), the reaction was terminated by the addition of 50 μL of 1 M Na2CO3. Absorbances at 420 nm and 550 nm were measured for each well using a plate reader, and Miller units were calculated according to standard methods.
as §2

[4] = biological target: T1, LasR; assay type: cell-based; conditions: for E. coli-LasR Inhibition [%]: 5 μM synthetic ligand against 7.5 nM OdDHL; for E. coli-LasR Inhibition [%] / inhibition at 5 µM: E. coli DH5α (pJN105L pSC11), normalized to OdDHL; for inhibition at 5 µM: read-out: E. coli-LasR Inhibition [%], 5 μM synthetic ligand against 7.5 nM OdDHL
Method: as §1, §2, §3, §2

[5] = biological target: T2, LuxR; set-up: species or system Vibrio fischeri; conditions: for V. fischeri-LuxR Activation [%]: 200 μM ligand; for V. fischeri-LuxR Activation [%] / activation at 200 µM: V. fischeri ES114 (Δ-luxI), normalized to OHHL; for activation at 200 µM: read-out: V. fischeri-LuxR Activation [%], 200 μM ligand
Method: as §4, §5, §6, §2, §7, §2

4-hydroxy PHL [B27]
E. coli-LasR Activation [%] [1]: 0%
V. fischeri-LuxR Inhibition [%] [2]: 12%
A. tumefaciens-TraR Activation [%] [3]: 0%
A. tumefaciens-TraR Inhibition [%] [3]: 3%
E. coli-LasR Inhibition [%] [4]: 7%
V. fischeri-LuxR Activation [%] [5]: 2%

O=C(CC(=O)N[C@@H]1CCOC1=O)Cc1ccccc1 [A25]
E. coli-LasR Activation [%] [1]: 84%
EC50 [1]: 540 nM
A. tumefaciens-TraR Activation [%] [3]: 2%
A. tumefaciens-TraR Inhibition [%] [3]: 50%
E. coli-LasR Inhibition [%] [4]: −7%
V. fischeri-LuxR Activation [%] [5]: 3%

O=C(Cc1ccc(O)cc1)N[C@H]1CCOC1=O [11w, 4-hydroxy PHL]
V. fischeri-LuxR Inhibition [%] [2]: lowest inhibitory activities

CCCCCCCCCCCC(=O)N[C@H]1CCOC1=O [A5, C12 AHL]
activation at 5 µM [1]: ~85%
EC50 [1]: 40 nM
inhibition at 5 µM [2]: 73%
activation at 10 µM [3]: 1%
inhibition at 10 µM [3]: 22%
inhibition at 5 µM [4]: -10%
activation at 200 µM [5]: 2%

4-methyl PHL [C19]
Activation (%) ([1]; E. coli-LasR, Library C primary agonism screen): 0%
Inhibition (%) ([2]; V. fischeri-LuxR, Library C primary antagonism screen): 58%
Activation (%) ([3]; A. tumefaciens-TraR, Library C primary agonism screen): 3%
Inhibition (%) ([3]; A. tumefaciens-TraR, Library C primary antagonism screen): 21%
Inhibition (%) ([4]; E. coli-LasR, Library C primary antagonism screen): 11%
Activation (%) ([5]; V. fischeri-LuxR, Library C primary agonism screen): 1%

CCCC(=O)CC(=O)N[C@H]1CCOC1=O [compound 3]
activation at 5 µM [1]: 1%
activation at 10 µM [3]: 1%
inhibition at 10 µM [3]: 89%
inhibition at 5 µM [4]: 15%
EC50 ([5]; LuxR EC50, V. fischeri ES114 (Δ-luxI)): 3000 nM
activation at 200 µM [5]: 100%

O=C(Cc1ccc(Br)cc1)N[C@@H]1CCOC1=O [D-5]
V. fischeri-LuxR Inhibition [%] [2]: ca. 20%

O=C(Cc1ccc(C(F)(F)F)cc1)N[C@H]1CCOC1=O [11s, 4-trifluoromethyl PHL]
IC50 [2]: 600 nM
inhibition at 5 µM [2]: ~80%

Nc1ccc(CC(=O)N[C@H]2CCOC2=O)cc1 [11v, 4-amino PHL]
V. fischeri-LuxR Inhibition [%] [2]: lowest inhibitory activities

O=C(Cc1ccc(-c2ccccc2)cc1)N[C@H]1CCOC1=O [11q, 4-phenyl PHL]
inhibition at 5 µM [2]: ~80%

O=C(CCCc1ccccc1)N[C@@H]1CCOC1=O [A26]
E. coli-LasR Activation [%] [1]: 0%
V. fischeri-LuxR Inhibition [%] [2]: 41%
A. tumefaciens-TraR Activation [%] [3]: 0%
A. tumefaciens-TraR Inhibition [%] [3]: 31%
V. fischeri-LuxR Activation [%] [5]: 3%

4-azido PHL [B20]
E. coli-LasR Activation [%] [1]: 0%
A. tumefaciens-TraR Activation [%] [3]: 0%
E. coli-LasR Inhibition [%] [4]: 19%
V. fischeri-LuxR Activation [%] [5]: 5%

O=C(Cc1ccccc1)N[C@H]1CCOC1=O [11a]
V. fischeri-LuxR Inhibition [%] [2]: abolished inhibitory activity

CCCCCCCCCC(=O)CC(=O)N[C@H]1CCOC1=O [A8, N-(3-oxo-dodecanoyl)-L-homoserine lactone, reference compound]
IC50 [2]: 400 nM

CCCCCC(=O)CC(=O)N[C@H]1CCOC1=O [compound 1, N-(3-oxo-octanoyl)-L-homoserine lactone, reference compound]
inhibition at 5 µM [2]: 63%
EC50 ([3]; EC50 of autoinducer in A. tumefaciens WCF47 (pCF372), value in method text): 100 nM
EC50 ([3]; TraR EC50): 200 nM
activation at 10 µM [3]: 100%
E. coli-LasR Inhibition [%] [4]: 50%
IC50 ([4]; determined against 7.5 nM OdDHL, read-out: LasR IC50): 110 nM
inhibition at 5 µM [4]: ≥ 50%
activation at 200 µM [5]: ~25%

O=C(CCCc1ccccc1)N[C@@H]1CCOC1=O [D-3]
V. fischeri-LuxR Inhibition [%] [2]: ca. 20%
